Assay results: paper PMC5672791 (Journal of medicinal chemistry, 2015)
“Also recorded” adds a separate entry of the source. Where a SMILES comes first, the peptide text is derived from it. [ ]: non-standard residue; d: D form.

What was measured:
mMC4R = mMC4R (Mus musculus, UniProt P56450); assay type: cell-based
mMC5R = mMC5R (Mus musculus, UniProt P41149); experiment: cAMP based β-galactosidase reporter assay, agonist activity at mMC5R; assay type: cell-based; settings: read-out: mMC5R Agonist EC50; HEK-293 cells, CRE/β-galactosidase reporter; mean ± SEM
mMC3R [1] = molecular target: T1, mMC3R (Mus musculus, UniProt P33033); experiment: cAMP based β-galactosidase reporter assay; assay type: cell-based; settings: Figure 1
hMC3R = settings: cited from earlier work
hMC4R = settings: cited from earlier work
MC4R = settings: cited from earlier work
[2] = system: mMC4R mutations (E92K, F253S); settings: cited from earlier work
mMC4R F176K = settings: mutation F176K; cited from earlier work
mMC3R [3] = molecular target: T1, mMC3R; assay type: cell-based
[4] = Schild analysis, agonist MTII, mean ± SEM

Chain of mMC4R (P56450 whole entry): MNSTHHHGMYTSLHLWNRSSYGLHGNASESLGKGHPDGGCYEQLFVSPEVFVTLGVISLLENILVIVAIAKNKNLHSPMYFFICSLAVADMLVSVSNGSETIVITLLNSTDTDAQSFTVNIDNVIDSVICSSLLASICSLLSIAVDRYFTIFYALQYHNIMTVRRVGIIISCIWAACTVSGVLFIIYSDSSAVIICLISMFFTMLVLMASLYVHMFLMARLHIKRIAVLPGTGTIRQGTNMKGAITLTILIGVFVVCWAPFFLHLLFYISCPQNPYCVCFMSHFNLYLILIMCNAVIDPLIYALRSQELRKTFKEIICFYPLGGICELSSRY
T1 sequence (P33033 whole entry): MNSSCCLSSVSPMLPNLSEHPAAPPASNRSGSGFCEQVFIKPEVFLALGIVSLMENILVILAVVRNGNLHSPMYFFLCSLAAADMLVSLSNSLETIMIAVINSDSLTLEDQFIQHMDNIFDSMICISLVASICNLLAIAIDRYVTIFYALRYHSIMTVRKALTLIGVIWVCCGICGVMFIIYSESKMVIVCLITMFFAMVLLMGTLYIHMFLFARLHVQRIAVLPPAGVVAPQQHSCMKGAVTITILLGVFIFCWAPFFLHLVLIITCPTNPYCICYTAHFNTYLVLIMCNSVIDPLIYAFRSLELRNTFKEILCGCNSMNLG
Chain of mMC5R (P41149 whole entry): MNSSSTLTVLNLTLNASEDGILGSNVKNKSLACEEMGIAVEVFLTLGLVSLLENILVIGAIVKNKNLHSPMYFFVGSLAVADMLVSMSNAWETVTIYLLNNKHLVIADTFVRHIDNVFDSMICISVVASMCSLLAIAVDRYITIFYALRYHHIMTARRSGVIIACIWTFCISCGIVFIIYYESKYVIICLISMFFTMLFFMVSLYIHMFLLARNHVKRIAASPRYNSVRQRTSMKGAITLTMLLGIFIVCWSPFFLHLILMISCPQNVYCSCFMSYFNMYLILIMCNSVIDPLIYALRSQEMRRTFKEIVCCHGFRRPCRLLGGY

With `C[C@@H]1NC(=O)[C@H](CC(N)=O)NC(=O)[C@H](Cc2ccccc2)NC(=O)[C@H](Cc2ccccc2)NC(=O)[C@H](CCCNC(=N)N)NC(=O)[C@H]([C@@H](C)O)NC(=O)[C@H](Cc2ccc(O)cc2)NC(=O)[C@@H]2CCCN2C(=O)[C@H]2CCCN2C(=O)[C@H](Cc2ccc(O)cc2)NC(=O)[C@H]([C@@H](C)O)NC(=O)[C@H](Cc2ccccc2)NC1=O` [Peptide 5] (cyclo(YTRFFNAFTY[dP]P)) as the compound, how does the Ki (mMC4R) read?
The Ki was 160 nM.

What about the EC50 (mMC5R) of the same compound?
Its EC50 is greater than 100000 nM.

Which “partial agonist activity at the mMC3R” value (mMC3R [1]) does the source give for `C[C@@H]1NC(=O)[C@H](CC(N)=O)NC(=O)[C@H](Cc2ccccc2)NC(=O)[C@H](Cc2ccccc2)NC(=O)[C@H](CCCNC(=N)N)NC(=O)[C@@H]2CCCN2C(=O)[C@H]2CCCN2C(=O)[C@H](Cc2ccccc2)NC1=O` [Peptide 6, c[Pro-Arg-Phe-Phe-Asn-Ala-Phe-DPro]] here?
The value was “lack of agonist activity; also recorded: without any partial agonist activity”.

Which results are given for “Ac-c[Cys-Arg-Phe-Phe-Asn-Ala-Phe-Cys]-NH2 [AGRP(110-117)]”?
binding affinity at the hMC3R (hMC3R): no detectable binding; fold lower hMC4R binding affinity than AGRP(83-132) (hMC4R; compared to C-terminal AGRP(83-132)): approximately 36 fold; IC50 (hMC4R; read-out: IC50 binding affinity at the hMC4R): 127 nM

With HS024 as the compound, how does the “selectivity for the MC4R compared to the MC3R” value (MC4R) read?
Its value is “approximately 20 fold”.

For `C[C@@H]1NC(=O)[C@H](CN)NC(=O)[C@H](Cc2ccccc2)NC(=O)[C@H](Cc2ccccc2)NC(=O)[C@H](CCCNC(=N)N)NC(=O)[C@@H]2CCCN2C(=O)[C@H]2CCCN2C(=O)[C@H](Cc2ccccc2)NC1=O` [Peptide 22, c[Pro-Arg-Phe-Phe-Dap-Ala-Phe-DPro]], which “partial agonist activity at the mMC3R” value (mMC3R [1]) is on record?
The value was “did not result in partial agonist activity”.

For “AGRP(83-132): C-terminal AGRP(83-132) peptide (SSRRCVRLHESCLGQQVPCCDPCATCYCRFFNAFCYCRKLGTAMNPCSRT; UniProt O00253 83-132, looked up, fragment)”, which “binding to mMC4R mutations E92K, F253S” value [2] is on record?
The value was “unable to bind”.

And the “loss of antagonist potency at mMC4R F176K” value (mMC4R F176K)?
The value was “complete loss of activity”.

With `C[C@@H]1NC(=O)[C@H](Cc2ccccc2)NC(=O)[C@H](C)NC(=O)[C@H](CC(N)=O)NC(=O)[C@H](Cc2ccccc2)NC(=O)[C@H](Cc2ccccc2)NC(=O)[C@H](CCCNC(=N)N)NC(=O)[C@H](C)NC(=O)[C@H](Cc2ccc(O)cc2)NC(=O)[C@@H]2CCCN2C(=O)[C@H]2CCCN2C(=O)[C@H](Cc2ccc(O)cc2)NC1=O` [Peptide 4] as the compound, how does the “no activity at the mMC4R up to (concentration)” value (mMC4R) read?
The value was greater than 100 µM.

And the “mMC4R antagonist pA2” value (mMC4R; [4])?
The value was >100,000.

And the “no activity at the mMC3R up to (concentration)” value (mMC3R [3])?
The value was greater than 100 µM.

And the “mMC3R antagonist pA2” value (mMC3R [3]; [4])?
The value was >100,000.

What about the EC50 (mMC5R) of the same compound?
The EC50 was greater than 100000 nM.
